Data as given in US5691189A (priority 1995, dated 1997).
“Also recorded” adds a separate entry of the source.

Columns and labels:
Format in all cases: cell-based
[1] = biological target: M2 (WSN, N31S) (M2 protein of Influenza A virus) (Influenza A virus (A/Wilson-Smith/1933(H1N1)), UniProt P05780, N31S)
[2] = biological target: Udorn M2 (M2 protein of Influenza A virus) (Influenza A virus (A/Udorn/307/1972(H3N2)), UniProt P0DOF5)
[3] = biological target: T1, M2 (WSN) (M2 protein of Influenza A virus) (Influenza A virus (A/Wilson-Smith/1933(H1N1)), UniProt P05780); settings: inducing media (galactose), 30° C., A600 versus time; amantadine 100 μM (FIG. 4)
T1 construct: amantadine-resistant, natural Asn31

NC12CC3CC(CC(C3)C1)C2 [amantadine]
toxicity of overexpressed WSN(N31S) M2 allele in yeast on addition of amantadine to the media [1]: blocked
growth of yeast transformants expressing the Udorn allele of M2 in the presence of amantadine [2]: growth rescue; also recorded: grow at near wild-type rates
growth of yeast transformants expressing the amantadine-resistant WSN allele of M2 in the presence of amantadine [3]: not remediated
